Reference: ChEMBL document CHEMBL3351875, “Synthesis of Deuterated Benzopyran Derivatives as Selective COX-2 Inhibitors with Improved Pharmacokinetic Properties” (ACS Med Chem Lett, 2014)
One block for each compound: values may come before it.

Assays:
Rattus norvegicus [1] = assay: Half life in Sprague-Dawley rat at 5 mg/kg, iv measured during 1 to 24 hrs by LC-MS method; format: ADME, organism-based; design: dose 5 mg/kg, route intravenous; details: in vivo
Rattus norvegicus [2] = assay: Volume of distribution in Sprague-Dawley rat at 10 mg/kg, po measured during 1 to 24 hrs by LC-MS method; format: ADME, organism-based; design: dose 10 mg/kg, route oral; details: in vivo
Rattus norvegicus [3] = assay: (§1) AUC (0 to infinity) in Sprague-Dawley rat at 10 mg/kg, po measured during 1 to 24 hrs by LC-MS method; format: ADME, organism-based, Plasma; design: time infinity, dose 10 mg/kg, route oral; details: in vivo
Rattus norvegicus [4] = assay: Antinociceptive activity in orally dosed Sprague-Dawley rat model of carrageenan-induced foot paw hyperalgesia assessed as paw withdrawal latency; format: functional, organism-based
[5] = Apparent oral clearance in Sprague-Dawley rat at 5 mg/kg, iv measured during 1 to 24 hrs by LC-MS method; format: ADME, organism-based; design: dose 5 mg/kg, route oral; details: in vivo
Rattus norvegicus [6] = assay: (§2) AUC (0 to infinity) in Sprague-Dawley rat at 5 mg/kg, iv measured during 1 to 24 hrs by LC-MS method; format: ADME, organism-based, Plasma; design: time infinity, dose 5 mg/kg, route intravenous; details: in vivo
[7] = Cmax in Sprague-Dawley rat at 5 mg/kg, iv measured during 1 to 24 hrs by LC-MS method; format: ADME, organism-based; design: dose 5 mg/kg, route intravenous; details: in vivo
[8] = (§3) Oral bioavailability in Sprague-Dawley rat at 10 mg/kg measured during 1 to 24 hrs by LC-MS method; format: ADME, organism-based; details: Sprague-Dawley, in vivo
[9] = (§4) Apparent oral clearance in Sprague-Dawley rat at 10 mg/kg, po measured during 1 to 24 hrs by LC-MS method; format: ADME, organism-based; design: dose 10 mg/kg, route oral; details: Sprague-Dawley, in vivo
Rattus norvegicus [10] = assay: Antiinflammatory activity in orally dosed Sprague-Dawley rat model of carrageenan-induced foot paw edema assessed as reduction in edema by plethysmometry; format: functional, organism-based
[11] = Volume of distribution in Sprague-Dawley rat at 5 mg/kg, iv measured during 1 to 24 hrs by LC-MS method; format: ADME, organism-based; design: dose 5 mg/kg, route intravenous; details: in vivo
Rattus norvegicus [12] = assay: Antiinflammatory activity in orally dosed Sprague-Dawley rat model of carrageenan-induced air pouch inflammation assessed as reduction in PGE2 level by ELISA method; format: functional, organism-based
[13] = target: T1, Prostaglandin G/H synthase 2 (Homo sapiens, UniProt P35354); assay: Inhibition of human recombinant COX2 pre-incubated for 15 mins before fluorometric substrate addition by fluorescence based assay
T1 sequence (P35354 whole entry): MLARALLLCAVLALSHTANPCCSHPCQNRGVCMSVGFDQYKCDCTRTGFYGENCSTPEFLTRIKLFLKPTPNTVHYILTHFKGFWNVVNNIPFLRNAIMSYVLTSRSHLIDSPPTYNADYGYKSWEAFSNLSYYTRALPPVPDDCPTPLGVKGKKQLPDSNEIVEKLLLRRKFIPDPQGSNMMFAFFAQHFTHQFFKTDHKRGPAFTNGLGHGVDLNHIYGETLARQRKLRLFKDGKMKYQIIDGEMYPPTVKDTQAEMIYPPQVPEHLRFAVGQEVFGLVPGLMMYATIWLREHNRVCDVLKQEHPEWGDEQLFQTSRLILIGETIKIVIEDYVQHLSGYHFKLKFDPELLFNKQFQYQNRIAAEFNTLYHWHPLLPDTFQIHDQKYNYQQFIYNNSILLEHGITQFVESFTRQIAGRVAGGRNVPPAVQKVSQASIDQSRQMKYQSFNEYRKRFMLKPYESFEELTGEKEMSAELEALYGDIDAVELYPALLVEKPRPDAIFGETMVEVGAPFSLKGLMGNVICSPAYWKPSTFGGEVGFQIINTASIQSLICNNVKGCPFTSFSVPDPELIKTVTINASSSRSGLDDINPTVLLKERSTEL

[14] = target: Prostaglandin G/H synthase 1 (Homo sapiens, UniProt P23219); assay: Inhibition of human recombinant COX1 pre-incubated for 15 mins before fluorometric substrate addition by fluorescence based assay
Rattus norvegicus [15] = assay: Antiarthritic activity in Lewis rat model of adjuvant-induced arthritis administrated by oral gavage once daily; format: functional
[16] = as §1; format: ADME, organism-based, Plasma; design: time infinity, dose 10 mg/kg, route oral; details: Sprague-Dawley, plasma
Rattus norvegicus [17] = assay: Tmax in Sprague-Dawley rat at 10 mg/kg, po measured during 1 to 24 hrs by LC-MS method; format: ADME, organism-based; design: dose 10 mg/kg, route oral; details: in vivo
Rattus norvegicus [18] = assay: Half life in Sprague-Dawley rat at 10 mg/kg, po measured during 1 to 24 hrs by LC-MS method; format: ADME, organism-based; design: dose 10 mg/kg, route oral; details: in vivo
[19] = as §2; format: ADME, organism-based, Plasma; design: time infinity, dose 5 mg/kg, route intravenous; details: Sprague-Dawley, plasma
[20] = Cmax in Sprague-Dawley rat at 10 mg/kg, po measured during 1 to 24 hrs by LC-MS method; format: ADME, organism-based; design: dose 10 mg/kg, route oral; details: in vivo
Rattus norvegicus [21] = assay: AUC (0 to infinity) in Sprague-Dawley rat at 2.5 mg/kg, po measured during 1 to 24 hrs by LC-MS method; format: ADME, organism-based, Plasma; design: dose 2.5 mg/kg, route oral, time infinity; details: in vivo
[22] = Volume of distribution in Sprague-Dawley rat at 1 mg/kg, iv measured during 1 to 24 hrs by LC-MS method; format: ADME, organism-based; design: dose 1 mg/kg, route intravenous; details: in vivo
Rattus norvegicus [23] = assay: AUC (0 to infinity) in Sprague-Dawley rat at 1 mg/kg, iv measured during 1 to 24 hrs by LC-MS method; format: ADME, organism-based, Plasma; design: time infinity, dose 1 mg/kg, route intravenous; details: in vivo
[24] = Oral bioavailability in Sprague-Dawley rat at 2.5 mg/kg measured during 1 to 24 hrs by LC-MS method; format: ADME, organism-based; details: Sprague-Dawley, in vivo
[25] = Apparent oral clearance in Sprague-Dawley rat at 2.5 mg/kg, po measured during 1 to 24 hrs by LC-MS method; format: ADME, organism-based; design: dose 2.5 mg/kg, route oral; details: Sprague-Dawley, in vivo
[26] = Cmax in Sprague-Dawley rat at 1 mg/kg, iv measured during 1 to 24 hrs by LC-MS method; format: ADME, organism-based; design: dose 1 mg/kg, route intravenous; details: in vivo
[27] = Cmax in Sprague-Dawley rat at 2.5 mg/kg, po measured during 1 to 24 hrs by LC-MS method; format: ADME, organism-based; design: dose 2.5 mg/kg, route oral; details: in vivo
Rattus norvegicus [28] = assay: Half life in Sprague-Dawley rat at 1 mg/kg, iv measured during 1 to 24 hrs by LC-MS method; format: ADME, organism-based; design: dose 1 mg/kg, route intravenous; details: in vivo
Rattus norvegicus [29] = assay: Tmax in Sprague-Dawley rat at 2.5 mg/kg, po measured during 1 to 24 hrs by LC-MS method; format: ADME, organism-based; design: dose 2.5 mg/kg, route oral; details: in vivo
Rattus norvegicus [30] = assay: Half life in Sprague-Dawley rat at 2.5 mg/kg, po measured during 1 to 24 hrs by LC-MS method; format: ADME, organism-based; design: dose 2.5 mg/kg, route oral; details: in vivo
[31] = Apparent oral clearance in Sprague-Dawley rat at 1 mg/kg, iv measured during 1 to 24 hrs by LC-MS method; format: ADME, organism-based; design: dose 1 mg/kg, route oral; details: in vivo
Rattus norvegicus [32] = assay: as §3; format: ADME, organism-based; details: in vivo
Rattus norvegicus [33] = assay: as §4; format: ADME, organism-based; design: dose 10 mg/kg, route oral; details: in vivo

Chain of Prostaglandin G/H synthase 1 (P23219 whole entry): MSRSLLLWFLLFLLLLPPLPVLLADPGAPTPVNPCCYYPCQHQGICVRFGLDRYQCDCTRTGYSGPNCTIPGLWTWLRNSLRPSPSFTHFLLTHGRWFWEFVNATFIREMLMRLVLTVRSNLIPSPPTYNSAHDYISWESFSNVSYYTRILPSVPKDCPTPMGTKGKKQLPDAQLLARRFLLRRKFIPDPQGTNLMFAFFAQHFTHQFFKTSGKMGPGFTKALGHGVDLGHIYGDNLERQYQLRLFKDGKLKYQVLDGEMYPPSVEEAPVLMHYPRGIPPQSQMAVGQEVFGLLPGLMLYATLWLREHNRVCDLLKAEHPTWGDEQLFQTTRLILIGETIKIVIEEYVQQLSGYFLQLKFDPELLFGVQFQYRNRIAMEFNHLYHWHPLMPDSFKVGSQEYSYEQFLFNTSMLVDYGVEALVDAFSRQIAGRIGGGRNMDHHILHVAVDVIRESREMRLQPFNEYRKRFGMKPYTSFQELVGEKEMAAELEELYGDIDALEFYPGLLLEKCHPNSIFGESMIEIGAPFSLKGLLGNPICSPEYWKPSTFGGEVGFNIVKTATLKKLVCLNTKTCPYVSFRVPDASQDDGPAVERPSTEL

SMILES: [2H]C([2H])([2H])c1cc2c(c(C([2H])([2H])[2H])c1Cl)C=C(C(=O)O)C(C(F)(F)F)O2 (stereo not given)
t1/2 (Rattus norvegicus [1]): 2.525 h
Vd (Rattus norvegicus [2]): 0.26 L/kg
AUC (Rattus norvegicus [3]): 118.331438 µg·h/mL
EC50 (Rattus norvegicus [4]): 2.77 mg/kg
CL/F [5]: 1.32 mL/min/kg
AUC (Rattus norvegicus [6]): 63.759714 µg·h/mL
Cmax [7]: 38800 ng/mL
bioavailability [8]: 92.8%
CL/F [9]: 1.43 mL/min/kg
EC50 (Rattus norvegicus [10]): 5.18 mg/kg
Vd [11]: 0.287 L/kg
EC50 (Rattus norvegicus [12]): 0.47 mg/kg

SMILES: Cc1c(Br)c(C)c2c(c1Br)OC(C(F)(F)F)C(C(=O)O)=C2 (stereo not given)
IC50 [13]: 69 nM
IC50 [14]: > 100 µM

SMILES: [2H]C([2H])([2H])c1cc2c(c(C([2H])([2H])[2H])c1)OC(C(F)(F)F)C(C(=O)O)=C2 (stereo not given)
IC50 [14]: > 100 µM

SMILES: Cc1ccc(-c2cc(C(F)(F)F)nn2-c2ccc(S(N)(=O)=O)cc2)cc1 [CELECOXIB]
EC50 (Rattus norvegicus [4]): 5 mg/kg
EC50 (Rattus norvegicus [10]): 2.81 mg/kg
EC50 (Rattus norvegicus [12]): 0.69 mg/kg
ED50 (Rattus norvegicus [15]): 1.57 mg/kg

SMILES: [2H]C([2H])([2H])c1cc2c(c(C([2H])([2H])[2H])c1Br)C=C(C(=O)O)[C@@H](C(F)(F)F)O2
IC50 [13]: 9 nM
IC50 [14]: > 100 µM

SMILES: [2H]C([2H])([2H])c1cc2c(c(C([2H])([2H])[2H])c1Cl)C=C(C(=O)O)[C@@H](C(F)(F)F)O2
IC50 [14]: > 100 µM

SMILES: [2H]C([2H])([2H])c1c(Br)c2c(c(C([2H])([2H])[2H])c1Br)C=C(C(=O)O)C(C(F)(F)F)O2 (stereo not given)
IC50 [14]: > 100 µM

SMILES: Cc1cc2c(c(C)c1Cl)C=C(C(=O)O)C(C(F)(F)F)O2 (stereo not given)
Vd [22]: 0.45 L/kg
Vd (Rattus norvegicus [2]): 1.25 L/kg
AUC (Rattus norvegicus [3]): 12.846927 µg·h/mL
AUC (Rattus norvegicus [23]): 4.898988 µg·h/mL
Tmax (Rattus norvegicus [17]): 26.3 min
t1/2 (Rattus norvegicus [18]): 3.09 h
F (Rattus norvegicus [32]): 78.5%
CL/F (Rattus norvegicus [33]): 0.195 L/h/kg
Cmax [20]: 6590 ng/mL
Cmax [26]: 5040 ng/mL
IC50 [14]: > 100 µM
t1/2 (Rattus norvegicus [28]): 1.5 h
EC50 (Rattus norvegicus [12]): 0.77 mg/kg
CL/F [31]: 3.45 mL/min/kg

SMILES: [2H]C([2H])([2H])c1cc2c(c(C([2H])([2H])[2H])c1Br)C=C(C(=O)O)C(C(F)(F)F)O2 (stereo not given)
t1/2 (Rattus norvegicus [1]): 2.733 h
Vd (Rattus norvegicus [2]): 0.57 L/kg
AUC(0-inf) [16]: 84800 ng·h/mL
EC50 (Rattus norvegicus [4]): 3.82 mg/kg
CL/F [5]: 2.25 mL/min/kg
AUC(0-inf) [19]: 37900 ng·h/mL
Cmax [7]: 26200 ng/mL
bioavailability [8]: 112%
CL/F [9]: 2.08 mL/min/kg
EC50 (Rattus norvegicus [10]): 2.26 mg/kg
IC50 [13]: 43 nM
Vd [11]: 0.529 L/kg
EC50 (Rattus norvegicus [12]): 0.57 mg/kg

Second part, led by results:

IC50 [14]: > 100 µM
SMILES: Cc1cc(Cl)c2c(c1)C=C(C(=O)O)C(C(F)(F)F)O2 (stereo not given)

t1/2 (Rattus norvegicus [1]): 4.186 h
Vd (Rattus norvegicus [2]): 0.53 L/kg
AUC (Rattus norvegicus [3]): 142.686966 µg·h/mL
EC50 (Rattus norvegicus [4]): 2.19 mg/kg
CL/F [5]: 1.28 mL/min/kg
AUC (Rattus norvegicus [6]): 66.436832 µg·h/mL
Cmax [7]: 39000 ng/mL
bioavailability [8]: 107%
CL/F [9]: 1.2 mL/min/kg
EC50 (Rattus norvegicus [10]): 3 mg/kg
IC50 [13]: 39 nM
Vd [11]: 0.461 L/kg
EC50 (Rattus norvegicus [12]): 0.27 mg/kg
SMILES: [2H]C([2H])([2H])c1cc(Br)cc2c1OC(C(F)(F)F)C(C(=O)O)=C2 (stereo not given)
ED50 (Rattus norvegicus [15]): 0.42 mg/kg

t1/2 (Rattus norvegicus [1]): 5.78 h
Vd (Rattus norvegicus [2]): 2.314 L/kg
AUC(0-inf) [16]: 42200 ng·h/mL
CL/F [5]: 2.67 mL/min/kg
Tmax (Rattus norvegicus [17]): 45 min
t1/2 (Rattus norvegicus [18]): 6.68 h
AUC(0-inf) [19]: 31300 ng·h/mL
Cmax [7]: 37200 ng/mL
bioavailability [8]: 67.5%
CL/F [9]: 4.03 mL/min/kg
Cmax [20]: 8150 ng/mL
Vd [11]: 1.35 L/kg
SMILES: CC(C)(C)c1cc2c(cc1Cl)C=C(C(=O)O)[C@@H](C(F)(F)F)O2 [TIGEMOCOXIB]

AUC (Rattus norvegicus [21]): 4.627624 µg·h/mL
Vd [22]: 0.59 L/kg
AUC (Rattus norvegicus [23]): 1.440446 µg·h/mL
bioavailability [24]: 128%
CL/F [25]: 9.12 mL/min/kg
Cmax [26]: 4130 ng/mL
Cmax [27]: 2720 ng/mL
t1/2 (Rattus norvegicus [28]): 0.59 h
EC50 (Rattus norvegicus [12]): 0.61 mg/kg
Tmax (Rattus norvegicus [29]): 15 min
t1/2 (Rattus norvegicus [30]): 1.75 h
CL/F [31]: 11.8 mL/min/kg
SMILES: Cc1cc(Cl)cc2c1OC(C(F)(F)F)C(C(=O)O)=C2 (stereo not given)

IC50 [14]: > 100 µM
SMILES: [2H]C([2H])([2H])c1cc(Cl)cc2c1O[C@H](C(F)(F)F)C(C(=O)O)=C2
